Data on twelve compounds can be found in ChEMBL document CHEMBL5236551, “Andrographolide and its derivatives: Current achievements and future perspectives” (Eur J Med Chem, 2021).

In brackets after ≈: the same amount, converted by molar mass.

For assay [1], the system named is Pseudomonas aeruginosa. Put plainly: Antibiofilm activity against Pseudomonas aeruginosa MTCC 7814 assessed as inhibition of biofilm formation at 0.1 mM in presence of azithromycin or gentamicin incubated for 48 hrs relative to control. The class given is functional. The settings on record: MTCC 7814, 48 h.
The subject of another assay is Mus musculus. Put plainly: Anti-inflammatory activity against dimethylbenzene-induced auricular edema Kunming mouse model assessed as inhibition of ear edema at 1.35 mmol/Kg, po administered once daily via gavage for 3 days relative to control. The class given is functional. The settings on record: 72 h, time 3 day.
For assay [2], the system named is Rattus norvegicus. The experiment in a line: Anti-inflammatory activity against egg albumin-induced paw edema in Sprague-Dawley rat assessed as inhibition of paw edema at 0.90 mmol/Kg, po preadministered once daily via gavage for 3 days followed by egg albumin addition measured at 120 min by plethysmometric analysis relative to control. It counts as functional. The settings on record: 72 h, at 0.9 mmol/kg, time 3 day.

A short description of assay [3]: Inhibition of TGF-beta1 induced mesenchymal transformation in human A549 cells assessed as inhibition rate at 1.25 uM relative to control. It counts as functional.
Assay [4] is described as follows: Antimigratory activity against human LX2 cells assessed as inhibition rate at 5 uM relative to control. The settings on record: LX-2. The class given is functional.
Assay [5] can be described thus: Antimigratory activity against Ang II-induced human Cardiac fibroblast cells assessed as inhibition rate at 0.16 uM relative to control. It counts as functional.
Assay [6] deals with MCF7. Put plainly: Antiproliferative activity against human MCF7 cells assessed as cell growth inhibition incubated for 72 hrs by CCK8 assay. The conditions noted are these: MCF7, 72 h. It counts as functional, cell-based. (In general: Tetrazolium assays rely on reduction of a dye to a coloured formazan, in cell work by metabolically active cells.)
In assay [7] the test system is HCT-116. Put plainly: Antiproliferative activity against human HCT-116 cells assessed as cell growth inhibition incubated for 72 hrs by CCK8 assay. It counts as functional, cell-based. The settings on record: HCT-116, 72 h.
The subject of assay [8] is Human immunodeficiency virus 1. Put plainly: Antiviral activity against HIV-1 infected in human C8166 cells. The class given is functional, organism-based. The settings on record: Human immunodeficiency virus 1, C8166.
Assay [9] deals with Rattus norvegicus. Put plainly: Anti-inflammatory activity against egg white-induced paw edema in rat model assessed as detumescence rate measured after 6 hrs relative to control. The class given is functional.
Assay [10] relates to Pseudomonas aeruginosa. The experiment in a line: Antibacterial activity against Pseudomonas aeruginosa assessed as bacterial growth inhibition by agar dilution method. It counts as functional. In general terms: In agar dilution the substance is mixed into plates at graded concentrations.
A further assay concerns Klebsiella aerogenes. Put plainly: Antibacterial activity against Klebsiella aerogenes assessed as bacterial growth inhibition by agar dilution method. It counts as functional.
The subject of another assay is NCI/ADR-RES. Put plainly: Cytotoxicity against human MCF7/ADR cells assessed as cell growth inhibition after 48 hrs by SRB assay. The class given is functional, cell-based.
The test system of assay [11] is MCF7. The experiment in a line: Cytotoxicity against human MCF7 cells assessed as cell growth inhibition after 48 hrs by SRB assay. The class given is functional, cell-based. The conditions noted are these: MCF7, 48 h. A general note: Sulforhodamine B stains cellular protein and so reports cell mass.
In a further assay the test system is PC-3. The experiment in a line: Cytotoxicity against human PC-3 cells assessed as cell growth inhibition after 48 hrs by SRB assay. It counts as functional, cell-based. The settings on record: PC-3, 48 h.
The test system of the next assay is SW-620. Put plainly: Cytotoxicity against human SW620 cells assessed as cell growth inhibition after 48 hrs by SRB assay. The settings on record: SW-620, 48 h. It counts as functional, cell-based.
The next assay relates to HT-29. The experiment in a line: Cytotoxicity against human HT-29 cells assessed as cell growth inhibition after 48 hrs by SRB assay. The settings on record: HT-29, 48 h. The class given is functional, cell-based.
The test system of a further assay is UACC-62. The experiment in a line: Cytotoxicity against human UACC-62 cells assessed as cell growth inhibition after 48 hrs by SRB assay. The conditions noted are these: UACC-62, 48 h. It counts as functional, cell-based.
The subject of the next assay is NCI-H522. Put plainly: Cytotoxicity against human NCI-H522 cells assessed as cell growth inhibition after 48 hrs by SRB assay. The settings on record: NCI-H522, 48 h. The class given is functional, cell-based.
In the next assay the test system is DU-145. The experiment in a line: Cytotoxicity against human DU-145 cells assessed as cell growth inhibition after 48 hrs by SRB assay. It counts as functional, cell-based. The conditions noted are these: DU-145, 48 h.
In another assay the test system is OVCAR-8. Put plainly: Cytotoxicity against human OVCAR-8 cells assessed as cell growth inhibition after 48 hrs by SRB assay. It counts as functional, cell-based. The settings on record: OVCAR-8, 48 h.
Assay [12] relates to HCT-116. The experiment in a line: Antiproliferative activity against human HCT-116 cells assessed as cell growth inhibition measured after 48 hrs by MTT assay. The class given is functional, cell-based. The conditions noted are these: HCT-116, 48 h.
For assay [13], the species on record is Rattus norvegicus. Put plainly: Antiplatelet activity against arachidonic acid-induced Sprague-Dawley rat platelet aggregation assessed as inhibition of platelet aggregation preincubated for 2 mins followed by arachidonic acid addition by turbidimetric method. The class given is functional. The conditions noted are these: Arterial blood.
Assay [14] is filed under the species Rattus norvegicus. Put plainly: Antiplatelet activity against collagen-induced Sprague-Dawley rat platelet aggregation assessed as inhibition of platelet aggregation preincubated for 2 mins followed by collagen addition by turbidimetric method. It counts as functional. The conditions noted are these: Arterial blood.
The species named for assay [15] is Rattus norvegicus. The experiment in a line: Antiplatelet activity against thrombin-induced Sprague-Dawley rat platelet aggregation assessed as inhibition of platelet aggregation preincubated for 2 mins followed by thrombin addition by turbidimetric method. The class given is functional. The conditions noted are these: Arterial blood.

In general, inhibition refers to the share of the control response that was lost under treatment. As a reminder, the inhibition in vivo is the drop in the measured response relative to a control, in per cent. A word on the IC50: it is the concentration at which inhibition is half-maximal. For orientation: MIC means the smallest concentration in the dilution series that meets the test's criterion for growth inhibition.

In the case of `C=C1CCC2[C@](C)(CO)[C@H](O)CC[C@@]2(C)[C@@H]1/C=C/C1=CCOC1=O` (stereo partly drawn), the inhibition at 100 µM in the assay with Pseudomonas aeruginosa [1] turned out to be 92%.

As for `C=C1CC[C@@H]2[C@](C)(COC(=O)c3cccnc3)[C@H](OC(=O)c3cccnc3)CC[C@@]2(C)[C@@H]1/C=C/C1=CC(=C/c2ccc(Cl)cc2)/OC1=O`, the inhibition in vivo at 1350 µmol/kg in the assay on Mus musculus came to 79.4%. Further, the inhibition in vivo at 900 µmol/kg in the assay with Rattus norvegicus [2] was 50.4%.

On to `C=C1CCC2[C@](C)(C=O)c3nc(N)sc3C[C@@]2(C)[C@@H]1/C=C/C1=CCOC1=O` (stereo partly drawn), for which the inhibition at 1.25 µM in assay [3] was over 65%. Besides, in assay [4], the inhibition at 5 µM is over 20%.

Take `C=C1CCC2[C@](C)(CO)NC(=O)CC[C@@]2(C)[C@@H]1/C=C/C1=CCOC1=O` (stereo partly drawn): the inhibition at 1.25 µM in assay [3] is over 60%. Moreover, the inhibition at 5 µM in [4] is over 40%. Besides, in assay [5], the inhibition at 0.16 µM was over 95%.

As for `C=C1CC[C@H]2[C@@](C)(C=CC(=O)[C@@]2(C)COC(=O)c2ccccc2)[C@@H]1C/C=C1/C(=O)OC[C@H]1O`, the IC50 in the assay on MCF7 [6] came out at 7.8 µM; in the assay on HCT-116 [7], 2.49 µM.

Consider `C=C1CCC2[C@](C)(CO)[C@H](O)CC[C@@]2(C)[C@@H]1CCC1C(=O)N(C)C[C@H]1O` (stereo partly drawn), for which half-maximal inhibition in assay [8] (IC50) required 4.1 µM.

Regarding `C[C@@]12CCC3[C@](C)(COC(=O)CCC(=O)O)[C@H](OC(=O)CCC(=O)O)CC[C@@]3(C)[C@@H]1CC(C1=CCOC1=O)O2` (stereo partly drawn), the “inhibition (INH)” value in the assay on Rattus norvegicus [9] amounted to 93.18%.

On to `C=C1CCC2[C@](C)(CO)[C@H](O)CC[C@@]2(C)[C@@H]1C/C=C(/C(=O)OCC)[C@H](O)CO` (stereo partly drawn), for which the MIC with Pseudomonas aeruginosa [10] and in the assay on Klebsiella aerogenes was 18.9 µg/mL (≈ 47.7 µM) each time.

As to `C=C1CCC2[C@](C)(CO)[C@H](O)CC[C@@]2(C)[C@@H]1C/C=C/c1ccc(F)cc1` (stereo partly drawn), the IC50 in the assay on NCI/ADR-RES was found to be 4 µM; with MCF7 [11], 14 µM; in the assay on PC-3, 14 µM; with SW-620, 20 µM; in the assay on HT-29, 16 µM; in the assay on UACC-62, 17 µM. Also, the figures for the IC50 in the assay on NCI-H522, with DU-145 and with OVCAR-8 were 3 µM, 7 µM and 2 µM, respectively.

Turning to `C=C1CC[C@@H]2[C@](C)(COC(C)=O)[C@H](OC(C)=O)CC[C@@]2(C)[C@@H]1CC(Nc1ccccc1SC)C1=CCOC1=O` (stereo partly drawn), in the assay on HCT-116 [12], the half-inhibitory concentration (IC50) was 5.8 µM.

Turning to `C=C1CCC2[C@](C)(COC(=O)CCC(=O)O)[C@H](OC(=O)CCC(=O)O)CC[C@@]2(C)[C@@H]1/C=C/c1cc(=O)oc2cc(OC(C)=O)ccc12` (stereo partly drawn), the results for the IC50 in the assay listed under Rattus norvegicus [13], in the assay listed under Rattus norvegicus [14] and in the assay listed under Rattus norvegicus [15] were 0.48 µM, 0.5 µM and 0.36 µM, respectively.

`C=C1CCC2[C@](C)(COC(=O)Cc3cccc4ccccc34)[C@H](OC(=O)c3cccnc3)CC[C@@]2(C)[C@@H]1/C=C/C1=CCOC1=O` (stereo partly drawn) had an IC50 in [8] of 9.69 µM.
